Measured values taken from ChEMBL document CHEMBL4359906, “Design and synthesis of new N-terminal fatty acid modified-antimicrobial peptide analogues with potent in vitro biological activity” (Eur J Med Chem, 2019).
Calls of active or inactive are those of the source. The rule behind the calls is not given here.

Assays:
Staphylococcus aureus [1] = assay: Antibacterial activity against Staphylococcus aureus ATCC 25923 after 18 hrs in presence of NaCl by CLSI based broth microdilution method (reference value: 128 microM); type: functional; conditions: ATCC 25923, 18 h
Staphylococcus aureus [2] = assay: Antibacterial activity against Staphylococcus aureus ATCC 25923 after 18 hrs in presence of KCl by CLSI based broth microdilution method (reference value: 128 microM); type: functional; conditions: ATCC 25923, 18 h
DNA [3] = assay: Binding affinity to Escherichia coli ATCC 25922 genomic DNA at 0.5 x MIC after 30 mins by agarose gel electrophoresis; type: nucleic-acid assay
Staphylococcus aureus [4] = assay: Antibacterial activity against Staphylococcus aureus ATCC 25923 after 18 hrs in presence of FeCl3 by CLSI based broth microdilution method (reference value: 128 microM); type: functional; conditions: ATCC 25923, 18 h
[5] = Cytotoxicity against mouse RAW264.7 cells assessed as cell proliferation at 16 uM after 1 hr by MTT assay relative to control; type: cell-based; conditions: read-out: Activity
Pseudomonas aeruginosa [6] = assay: Antibiofilm activity against Pseudomonas aeruginosa ATCC 27853 at 2 times of MIC after 24 hrs by crystal violet staining based assay; type: functional, organism-based
Escherichia coli [7] = assay: Antimicrobial activity against Escherichia coli ATCC 25922 preincubated for 6 hrs in presence of 10% mouse serum and measured after 18 hrs by CLSI-based broth microdilution assay (reference value: 4 microM); type: functional
Escherichia coli [8] = assay: Antibacterial activity against Escherichia coli ATCC 25922 after 18 hrs in presence of MgCl2 by CLSI based broth microdilution method (reference value: 4 microM); type: functional; conditions: ATCC 25922, 18 h
Escherichia coli [9] = assay: Antimicrobial activity against Escherichia coli ATCC 25922 preincubated for 1 hr in presence of 10% mouse serum and measured after 18 hrs by CLSI-based broth microdilution assay (reference value: 4 microM); type: functional
Staphylococcus aureus [10] = assay: Antibacterial activity against Staphylococcus aureus ATCC 25923 after 18 hrs in presence of NaCl by CLSI based broth microdilution method (reference value: 16 microM); type: functional; conditions: ATCC 25923, 18 h
Escherichia coli [11] = assay: Antibacterial activity against Escherichia coli ATCC 25922 after 18 hrs in presence of KCl by CLSI based broth microdilution method (reference value: 4 microM); type: functional; conditions: ATCC 25922, 18 h
Escherichia coli [12] = assay: Antibacterial activity against Escherichia coli ATCC 25922 after 18 hrs in presence of NaCl by CLSI based broth microdilution method (reference value: 4 microM); type: functional; conditions: ATCC 25922, 18 h
Staphylococcus aureus [13] = assay: Antibacterial activity against Staphylococcus aureus ATCC 25923 after 18 hrs in presence of MgCl2 by CLSI based broth microdilution method (reference value: 16 microM); type: functional; conditions: ATCC 25923, 18 h
RAW264.7 = assay: Cytotoxicity against mouse RAW264.7 cells assessed as cell proliferation at 16 uM after 1 hr by MTT assay; type: cell-based; conditions: raw264.7, 1 h
Staphylococcus aureus [14] = assay: Antibacterial activity against Staphylococcus aureus ATCC 25923 after 18 hrs in presence of FeCl3 by CLSI based broth microdilution method (reference value: 4 microM); type: functional; conditions: ATCC 25923, 18 h
[15] = Cytotoxicity against mouse RAW264.7 cells assessed as cell proliferation at 8 uM after 1 hr by MTT assay relative to control; type: cell-based; conditions: read-out: Activity
Staphylococcus aureus [16] = assay: Antibacterial activity against Staphylococcus aureus ATCC 25923 after 18 hrs in presence of NaCl by CLSI based broth microdilution method (reference value: 4 microM); type: functional; conditions: ATCC 25923, 18 h
Staphylococcus aureus [17] = assay: Antibacterial activity against Staphylococcus aureus ATCC 25923 after 18 hrs in presence of KCl by CLSI based broth microdilution method (reference value: 4 microM); type: functional; conditions: ATCC 25923, 18 h
Staphylococcus aureus [18] = assay: Antibacterial activity against Staphylococcus aureus ATCC 25923 after 18 hrs in presence of MgCl2 by CLSI based broth microdilution method (reference value: 4 microM); type: functional; conditions: ATCC 25923, 18 h
Pseudomonas aeruginosa [19] = assay: Antibiofilm activity against Pseudomonas aeruginosa ATCC 27853 at 1 to 2 times of MIC after 24 hrs by crystal violet staining based assay; type: functional, organism-based
DNA [20] = assay: Binding affinity to Escherichia coli ATCC 25922 genomic DNA at 8 x MIC after 30 mins by agarose gel electrophoresis; type: nucleic-acid assay
DNA [21] = assay: Binding affinity to Escherichia coli ATCC 25922 genomic DNA at 1 x MIC after 30 mins by agarose gel electrophoresis; type: nucleic-acid assay
Escherichia coli [22] = assay: Antimicrobial activity against Escherichia coli ATCC 25922 at 1 mM preincubated for 6 hrs in presence of 2000 ug/ml chymotrypsin and measured after 18 hrs by microplate reader analysis; type: functional, organism-based
Staphylococcus aureus [23] = assay: Antibacterial activity against Staphylococcus aureus ATCC 25923 after 18 hrs in presence of KCl by CLSI based broth microdilution method (reference value: 64 microM); type: functional; conditions: ATCC 25923, 18 h
Staphylococcus aureus [24] = assay: Antibacterial activity against Staphylococcus aureus ATCC 25923 after 18 hrs in presence of NaCl by CLSI based broth microdilution method (reference value: 64 microM); type: functional; conditions: ATCC 25923, 18 h
Escherichia coli [25] = assay: Antimicrobial activity against Escherichia coli ATCC 25922 at 1 mM preincubated for 6 hrs in presence of 20 ug/ml chymotrypsin and measured after 18 hrs by microplate reader analysis; type: functional, organism-based
Staphylococcus aureus [26] = assay: Antibacterial activity against Staphylococcus aureus ATCC 25923 after 18 hrs in presence of FeCl3 by CLSI based broth microdilution method (reference value: 64 microM); type: functional; conditions: ATCC 25923, 18 h
Staphylococcus aureus [27] = assay: Antibacterial activity against Staphylococcus aureus ATCC 25923 after 18 hrs in presence of FeCl3 by CLSI based broth microdilution method (reference value: 32 microM); type: functional; conditions: ATCC 25923, 18 h
DNA [28] = assay: Binding affinity to Escherichia coli ATCC 25922 genomic DNA at 4 x MIC after 30 mins by agarose gel electrophoresis; type: nucleic-acid assay
Escherichia coli [29] = assay: Antimicrobial activity against Escherichia coli ATCC 25922 at 1 mM preincubated for 6 hrs in presence of 200 ug/ml chymotrypsin and measured after 18 hrs by microplate reader analysis; type: functional, organism-based
Staphylococcus aureus [30] = assay: Antibacterial activity against Staphylococcus aureus ATCC 25923 after 18 hrs in presence of KCl by CLSI based broth microdilution method (reference value: 32 microM); type: functional; conditions: ATCC 25923, 18 h
Staphylococcus aureus [31] = assay: Antibacterial activity against Staphylococcus aureus ATCC 25923 after 18 hrs in presence of MgCl2 by CLSI based broth microdilution method (reference value: 32 microM); type: functional; conditions: ATCC 25923, 18 h
Escherichia coli [32] = assay: Antimicrobial activity against Escherichia coli ATCC 25922 preincubated for 1 hr in presence of 10% mouse serum and measured after 18 hrs by CLSI-based broth microdilution assay (reference value: 64 microM); type: functional
Escherichia coli [33] = assay: Antibacterial activity against Escherichia coli ATCC 25922 after 18 hrs in presence of NaCl by CLSI based broth microdilution method (reference value: 64 microM); type: functional; conditions: ATCC 25922, 18 h
Escherichia coli [34] = assay: Antimicrobial activity against Escherichia coli ATCC 25922 preincubated for 6 hrs in presence of 10% mouse serum and measured after 18 hrs by CLSI-based broth microdilution assay (reference value: 64 microM); type: functional
Escherichia coli [35] = assay: Antibacterial activity against Escherichia coli ATCC 25922 after 18 hrs in presence of KCl by CLSI based broth microdilution method (reference value: 64 microM); type: functional; conditions: ATCC 25922, 18 h

CCCC(=O)NC(Cc1cn(CCCC[C@H](NC(C)=O)C(=O)NCC(=O)N[C@@H](CC(C)C)C(=O)N[C@@H](CC(C)C)C(=O)N[C@H](CCCCN)C(=O)N[C@@H](CCCNC(=N)N)C(=O)N[C@H](C(=O)N[C@H](CCCCN)C(=O)N[C@H](C(=O)N[C@@H](CC(C)C)C(=O)N[C@@H](CC(C)C)C(N)=O)[C@@H](C)O)[C@@H](C)CC)nn1)C(=O)NCC(=O)N[C@@H](CC(C)C)C(=O)N[C@@H](CC(C)C)C(=O)N[C@H](CCCCN)C(=O)N[C@@H](CCCNC(=N)N)C(=O)N[C@H](C(=O)N[C@H](CCCCN)C(=O)N[C@H](C(=O)N[C@@H](CC(C)C)C(=O)N[C@@H](CC(C)C)C(N)=O)[C@@H](C)O)[C@@H](C)CC (stereo partly specified)
MIC (Staphylococcus aureus [1]): > 128 µM
MIC (Staphylococcus aureus [2]): 128 µM
Activity (DNA [3]): inactive
MIC (Staphylococcus aureus [4]): 128 µM

CCCCCCCCCC(=O)NCC(=O)N[C@@H](CC(C)C)C(=O)N[C@@H](CC(C)C)C(=O)N[C@H](CCCCN)C(=O)N[C@@H](CCCNC(=N)N)C(=O)N[C@H](C(=O)N[C@H](CCCCN)C(=O)N[C@H](C(=O)N[C@@H](CC(C)C)C(=O)N[C@@H](CC(C)C)C(N)=O)[C@@H](C)O)[C@@H](C)CC
viability at 1 h, 16 µM [5]: < 80%
inhibition (Pseudomonas aeruginosa [6]): Active

CCCCCCCC(=O)NC(Cc1cn(CCCC[C@H](NC(C)=O)C(=O)NCC(=O)N[C@@H](CC(C)C)C(=O)N[C@@H](CC(C)C)C(=O)N[C@H](CCCCN)C(=O)N[C@@H](CCCNC(=N)N)C(=O)N[C@H](C(=O)N[C@H](CCCCN)C(=O)N[C@H](C(=O)N[C@@H](CC(C)C)C(=O)N[C@@H](CC(C)C)C(N)=O)[C@@H](C)O)[C@@H](C)CC)nn1)C(=O)NCC(=O)N[C@@H](CC(C)C)C(=O)N[C@@H](CC(C)C)C(=O)N[C@H](CCCCN)C(=O)N[C@@H](CCCNC(=N)N)C(=O)N[C@H](C(=O)N[C@H](CCCCN)C(=O)N[C@H](C(=O)N[C@@H](CC(C)C)C(=O)N[C@@H](CC(C)C)C(N)=O)[C@@H](C)O)[C@@H](C)CC (stereo partly specified)
MIC (Escherichia coli [7]): 16 µM
MIC (Escherichia coli [8]): 16 µM
MIC (Escherichia coli [9]): 8 µM
MIC (Staphylococcus aureus [10]): 32 µM
MIC (Escherichia coli [11]): 16 µM
MIC (Escherichia coli [12]): 8 µM
MIC (Staphylococcus aureus [13]): 16 µM
Activity (RAW264.7): Toxic

CCCCCCCCCCCC(=O)NCC(=O)N[C@@H](CC(C)C)C(=O)N[C@@H](CC(C)C)C(=O)N[C@H](CCCCN)C(=O)N[C@@H](CCCNC(=N)N)C(=O)N[C@H](C(=O)N[C@H](CCCCN)C(=O)N[C@H](C(=O)N[C@@H](CC(C)C)C(=O)N[C@@H](CC(C)C)C(N)=O)[C@@H](C)O)[C@@H](C)CC
MIC (Staphylococcus aureus [14]): 8 µM
viability at 1 h, 8 µM [15]: < 80%
MIC (Staphylococcus aureus [16]): 4 µM
MIC (Staphylococcus aureus [17]): 4 µM
MIC (Staphylococcus aureus [18]): 8 µM
inhibition (Pseudomonas aeruginosa [19]): Active

CCCCCCCCCCCC(=O)NC(Cc1cn(CCCC[C@H](NC(C)=O)C(=O)NCC(=O)N[C@@H](CC(C)C)C(=O)N[C@@H](CC(C)C)C(=O)N[C@H](CCCCN)C(=O)N[C@@H](CCCNC(=N)N)C(=O)N[C@H](C(=O)N[C@H](CCCCN)C(=O)N[C@H](C(=O)N[C@@H](CC(C)C)C(=O)N[C@@H](CC(C)C)C(N)=O)[C@@H](C)O)[C@@H](C)CC)nn1)C(=O)NCC(=O)N[C@@H](CC(C)C)C(=O)N[C@@H](CC(C)C)C(=O)N[C@H](CCCCN)C(=O)N[C@@H](CCCNC(=N)N)C(=O)N[C@H](C(=O)N[C@H](CCCCN)C(=O)N[C@H](C(=O)N[C@@H](CC(C)C)C(=O)N[C@@H](CC(C)C)C(N)=O)[C@@H](C)O)[C@@H](C)CC (stereo partly specified)
Activity (DNA [20]): inactive
Activity (DNA [21]): Dose-dependent effect
Activity (Escherichia coli [22]): Active

CCCCCC(=O)NC(Cc1cn(CCCC[C@H](NC(C)=O)C(=O)NCC(=O)N[C@@H](CC(C)C)C(=O)N[C@@H](CC(C)C)C(=O)N[C@H](CCCCN)C(=O)N[C@@H](CCCNC(=N)N)C(=O)N[C@H](C(=O)N[C@H](CCCCN)C(=O)N[C@H](C(=O)N[C@@H](CC(C)C)C(=O)N[C@@H](CC(C)C)C(N)=O)[C@@H](C)O)[C@@H](C)CC)nn1)C(=O)NCC(=O)N[C@@H](CC(C)C)C(=O)N[C@@H](CC(C)C)C(=O)N[C@H](CCCCN)C(=O)N[C@@H](CCCNC(=N)N)C(=O)N[C@H](C(=O)N[C@H](CCCCN)C(=O)N[C@H](C(=O)N[C@@H](CC(C)C)C(=O)N[C@@H](CC(C)C)C(N)=O)[C@@H](C)O)[C@@H](C)CC (stereo partly specified)
MIC (Staphylococcus aureus [23]): 64 µM
MIC (Staphylococcus aureus [24]): 128 µM
Activity (Escherichia coli [25]): Active
MIC (Staphylococcus aureus [26]): 32 µM

CCCCCCCC(=O)NCC(=O)N[C@@H](CC(C)C)C(=O)N[C@@H](CC(C)C)C(=O)N[C@H](CCCCN)C(=O)N[C@@H](CCCNC(=N)N)C(=O)N[C@H](C(=O)N[C@H](CCCCN)C(=O)N[C@H](C(=O)N[C@@H](CC(C)C)C(=O)N[C@@H](CC(C)C)C(N)=O)[C@@H](C)O)[C@@H](C)CC
MIC (Staphylococcus aureus [27]): 32 µM
Activity (DNA [28]): Active
Activity (Escherichia coli [29]): Active
MIC (Staphylococcus aureus [30]): 64 µM
MIC (Staphylococcus aureus [31]): 64 µM
MIC (Escherichia coli [32]): 64 µM
MIC (Escherichia coli [33]): 64 µM
MIC (Escherichia coli [34]): 64 µM
MIC (Escherichia coli [35]): 32 µM
